Target: T1, human 5HT1A receptor (Homo sapiens, UniProt P08908)
T1 construct: expressed in transfected cells; host or cells: CHO cells (stably transfected)
T1 sequence (P08908 1-422): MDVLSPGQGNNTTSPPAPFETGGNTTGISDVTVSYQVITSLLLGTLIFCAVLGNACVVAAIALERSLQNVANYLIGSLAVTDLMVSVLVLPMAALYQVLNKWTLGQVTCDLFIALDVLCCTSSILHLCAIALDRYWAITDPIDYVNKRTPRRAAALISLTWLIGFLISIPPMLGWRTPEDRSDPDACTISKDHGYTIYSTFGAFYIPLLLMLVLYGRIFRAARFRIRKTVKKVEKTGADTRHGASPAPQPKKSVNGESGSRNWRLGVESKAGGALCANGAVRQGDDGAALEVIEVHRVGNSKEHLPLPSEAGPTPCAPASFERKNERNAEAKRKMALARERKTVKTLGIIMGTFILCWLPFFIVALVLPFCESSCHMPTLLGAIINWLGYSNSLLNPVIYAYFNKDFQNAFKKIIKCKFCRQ
Assay: 5-HT1A Receptor Binding Assay (displacement of [3H]8-OH-DPAT in CHO cells stably transfected with human 5HT1A receptor)
Settings: displacement of 8-OH-DPAT, 1.5 nM ligand, 30 minute incubation at room temperature
Procedure: High affinity for the serotonin 5--HT1A receptor was established by testing the claimed compound's ability to displace [^3 ]8-OH-DPAT binding in CHO cells stably transfected with human 5HT1A receptor. Stably transfected CHO cells are grown in DMEM containing 10% heat inactivated FBS and non-essential amino acids. Cells are scraped off the plate, transferred to centrifuge tubes, and washed twice by centrifugation (2000 rpm for 10 min., 4° C.) in buffer (50 mM Tris pH 7.5). The resulting pellets are aliquoted and placed at -80° C. On the day of assay, the cells are thawed on ice and resuspended in buffer. The binding assay is performed in a 96 well microtiter plate in a total volume of 250 μL. Non-specific binding is determined in the presence of […] 5HT, final ligand concentration is 1.5 nM. Following a 30 minute incubation at room temperature, the reaction is terminated by the addition of ice cold buffer and rapid filtration through a GF/B filter presoaked for 30 minutes in 0.5% PEI. Compounds are initially tested in a single point assay to determine percent inhibition at 1, 0.1, and 0.01 mM, and Ki values are determined for the active compounds.

Ki [nM]	Compound
7.1	c1ccc(Cc2nc(C3CCCCC3)oc2CN2CCN(c3cccc4[nH]ccc34)CC2)cc1 [Example 10, 4-[4-(4-Benzyl-2-cyclohexyl-oxazol-5-ylmethyl)-piperazin-1-yl]-1H-indole]
0.88	COc1ccccc1N1CCN(Cc2oc(C3CCCCC3)nc2Cc2ccccc2)CC1 [Example 11, 1-(4Benzyl-2-cyclohexyl-oxazol-5-ylmethyl)-4-(2-methoxyphenyl)-piperazine]
4.72	c1ccc(Cc2nc(C3CCCCC3)oc2CN2CCN(c3cccc4c3OCCO4)CC2)cc1 [Example 9, 1-(4-Benzyl-2-cyclohexyl-oxazol-5-ylmethyl)-4(2,3-dihydro-benzo[1,4]dioxin-5-yl)-piperazine]

From patent publication US6242448A, “Trisubstituted-oxazole derivatives as serotonin ligands” (American Home Products Corporation, priority 1999, dated 2001)
